Source: US12622915B2, “Methods of treating PDE IV-mediated diseases or conditions” (Vanda Pharmaceuticals Inc., priority 2020, dated 2026)
pIC50: −log10 of the molar value.

Columns and labels:
Type in all cases: biochemical
[1] = target: T1, Phosphodiesterase PDE4A1A (Homo sapiens, UniProt P27815); assay: Phosphodiesterase PDE4A1A enzyme assay
T1 construct: host or cells: insect Sf9 cells
Description: (§1) Reference standards are run as an integral part of each assay to ensure the validity of the results obtained. Reference Compounds: • Phosphodiesterase PDE10A2 Papaverine • Phosphodiesterase PDE11A4 Dipyridamole • Phosphodiesterase PDE1A MMPX • Phosphodiesterase PDE2A EHNA • Phosphodiesterase PDE3A Cilostamide • Phosphodiesterase PDE4A1A Rolipram • Phosphodiesterase PDE4B1 Rolipram • Phosphodiesterase PDE5A Zaprinast • Phosphodiesterase PDE6 Zaprinast • Phosphodiesterase PDE7A IBMX • Phosphodiesterase PDE7B IBMX • Phosphodiesterase PDE8A1 Dipyridamole • Phosphodiesterase PDE9A2 Zaprinast
PDE4 assays are performed using methods adapted from the literature. See Richter W, et al. (2001) Identification of inhibitor binding sites of the cAMP-specific phosphodiesterase 4. Cell Signal. 13(4): 287-297; Wang H, et al. (2005) Multiple elements jointly determine inhibitor selectivity of cyclic nucleotide phosphodiesterases 4 and 7. J Biol Chem. 280(35): 30949-30955.
(§2) Phosphodiesterase PDE4A1A; Phosphodiesterase PDE4B1; Phosphodiesterase PDE10A2; Phosphodiesterase PDE11A4; Phosphodiesterase PDE2A; Phosphodiesterase PDE3A; Phosphodiesterase PDE7A; Phosphodiesterase PDE7B; and Phosphodiesterase PDE8A1: • Source: Human recombinant insect Sf9 cells • Substrate: 0.10 μM FAM-cAMP • Vehicle: 1.00% DMSO • Significance Crit.: ≥50% of max stimulation or inhibition • Incubation Buffer: 10 mM Tris-HCl, pH 7.2, 10 mM MgCl2, 0.05% NaN3, 0.1% phosphate-free BSA • Quantitation Method: Quantitation of Fluorescein-AMP-IMAP • Pre-Incub. Time/Temp: 15 minutes @25° C. • Incubation Time/Temp: 30 minutes @25° C.
(§3) IC50 values are determined by a non-linear, least squares regression analysis using MathIQ™ (ID Business Solutions Ltd., UK). Where inhibition constants (Ki) are presented, the Ki values are calculated using the equation of Cheng and Prusoff (Cheng, Y., Prusoff, W. H., Biochem. Pharmacol. 22:3099-3108, 1973) using the observed IC50 of the tested compound, the concentration of radioligand employed in the assay, and the historical values for the KD of the ligand. Where presented, the Hill coefficient (nH), defining the slope of the competitive binding curve, is calculated using MathIQ™. […] Where IC50, Ki, and/or nH data are presented without Standard Error of the Mean (SEM), data are insufficient to be quantitative, and the values presented (Ki, IC50, nH) are interpreted with caution.
Reference standards are run as an integral part of each assay to ensure the validity of the results obtained. Rolipram is used for the PDE4 assays.
(§4) Phosphodiesterase PDE4A1A: • Source: Human recombinant insect Sf9 cells • Substrate: 0.10 μM FAM-cAMP • Vehicle: 1.00% DMSO • Significance Crit.: ≥50% of max stimulation or inhibition • Incubation Buffer: 10 mM Tris-HCl, pH 7.2, 10 mM MgCl2, 0.05% NaN3, 0.1% phosphate-free BSA • Quantitation Method: Quantitation of Fluorescein-AMP-IMAP • Pre-Incub. Time/Temp: 15 minutes @25° C. • Incubation Time/Temp: 30 minutes @25° C.
as §3, with “W.H.,” for “W. H.,”

[2] = target: T2, Phosphodiesterase PDE5A (Homo sapiens, UniProt O76074); assay: Phosphodiesterase PDE5A enzyme assay; conditions: N=2, Example 3
T2 construct: host or cells: insect Sf9 cells
Description: as §1
as §4, with “PDE1A; Phosphodiesterase PDE5A; and Phosphodiesterase PDE9A2:” for “PDE4A1A:”, “Fluorescein-GMP-IMAP” for “Fluorescein-AMP-IMAP”
IC50 values are determined by a non-linear, least squares regression analysis using MathIQ™ (ID Business Solutions Ltd., UK). […] Where presented, the Hill coefficient (nH), defining the slope of the competitive binding curve, is calculated using MathIQ™. […]

[3] = target: T3, Phosphodiesterase PDE8A1 (Homo sapiens, UniProt O60658); assay: Phosphodiesterase PDE8A1 enzyme assay; conditions: N=2, Example 3
T3 construct: host or cells: insect Sf9 cells
Description: as §1, §2
IC50 values are determined by a non-linear, least squares regression analysis using MathIQ™ (ID Business Solutions Ltd., UK). […]

T1 sequence (P27815 1-647 isoform P27815-4): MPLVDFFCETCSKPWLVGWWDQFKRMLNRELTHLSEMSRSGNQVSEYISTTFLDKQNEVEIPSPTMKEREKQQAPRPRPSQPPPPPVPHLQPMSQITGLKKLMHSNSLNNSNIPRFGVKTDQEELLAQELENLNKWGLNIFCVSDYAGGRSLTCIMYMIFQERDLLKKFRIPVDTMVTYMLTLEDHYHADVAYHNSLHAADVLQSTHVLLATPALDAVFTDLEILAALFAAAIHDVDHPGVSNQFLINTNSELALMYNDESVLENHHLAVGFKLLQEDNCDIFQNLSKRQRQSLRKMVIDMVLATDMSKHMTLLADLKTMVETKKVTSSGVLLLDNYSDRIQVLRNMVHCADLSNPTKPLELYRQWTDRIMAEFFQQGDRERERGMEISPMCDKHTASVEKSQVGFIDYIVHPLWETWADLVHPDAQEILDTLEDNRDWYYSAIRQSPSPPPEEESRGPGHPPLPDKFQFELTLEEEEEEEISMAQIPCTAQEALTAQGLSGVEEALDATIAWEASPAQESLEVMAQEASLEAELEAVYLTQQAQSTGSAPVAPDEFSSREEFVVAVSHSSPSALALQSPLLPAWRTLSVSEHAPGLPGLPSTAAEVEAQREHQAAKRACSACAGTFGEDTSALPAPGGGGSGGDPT
T3 sequence (O60658 whole entry): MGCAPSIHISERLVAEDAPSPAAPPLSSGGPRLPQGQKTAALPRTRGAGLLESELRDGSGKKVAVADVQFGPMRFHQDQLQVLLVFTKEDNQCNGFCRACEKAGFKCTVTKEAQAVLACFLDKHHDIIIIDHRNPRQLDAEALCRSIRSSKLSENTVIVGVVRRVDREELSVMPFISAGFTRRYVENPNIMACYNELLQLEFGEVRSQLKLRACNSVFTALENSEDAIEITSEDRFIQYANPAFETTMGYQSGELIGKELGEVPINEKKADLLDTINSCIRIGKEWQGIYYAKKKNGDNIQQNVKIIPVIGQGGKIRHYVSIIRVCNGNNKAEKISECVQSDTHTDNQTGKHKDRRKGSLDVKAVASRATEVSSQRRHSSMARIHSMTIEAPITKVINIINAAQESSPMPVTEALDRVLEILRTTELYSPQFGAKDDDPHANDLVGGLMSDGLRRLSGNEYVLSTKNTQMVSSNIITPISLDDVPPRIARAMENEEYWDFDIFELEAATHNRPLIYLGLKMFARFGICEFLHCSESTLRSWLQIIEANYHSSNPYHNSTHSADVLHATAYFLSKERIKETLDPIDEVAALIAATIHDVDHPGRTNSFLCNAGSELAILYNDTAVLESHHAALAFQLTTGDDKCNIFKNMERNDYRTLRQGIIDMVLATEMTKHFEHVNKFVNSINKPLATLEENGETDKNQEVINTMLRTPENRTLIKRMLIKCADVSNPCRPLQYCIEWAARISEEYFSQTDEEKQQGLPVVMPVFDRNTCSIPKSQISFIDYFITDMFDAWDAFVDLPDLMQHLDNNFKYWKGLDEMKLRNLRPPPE

- inhibition at 0.01 µM ([1]; 10 nM, N=2, Example 4): 23%
- inhibition at 0.03 µM ([1]; 0.03 μM, N=2, Example 4): 37%
- inhibition at 0.1 µM ([1]; 0.1 μM, N=2, Example 4): 58%
- inhibition at 0.3 µM ([1]; 0.3 μM, N=2, Example 4): 75%
- inhibition at 1 µM ([1]; 1 μM, N=2, Example 4): 87%
- inhibition at 3 µM ([1]; 3 μM, N=2, Example 4): 93%
- inhibition at 10 µM ([1]; N=2, Example 3): 99%
- inhibition at 10 µM ([1]; N=2, Example 4): 96%
- pIC50 ([1]; Example 4): 7.20
- inhibition at 10 µM [2]: 27%
- inhibition at 10 µM [3]: 0%
SMILES: CNc1nc(Nc2ccccc2)nc(OCC(F)(F)C(F)F)n1 [compound of Formula (I), N^2-methyl-N^4-phenyl-6-(2,2,3,3-tetrafluoropropoxy)-1,3,5-triazine-2,4-diamine]
